We go through ten compounds from patent US5407961A, “α-substituted benzenemethanamine derivatives and pharmaceutical use” (Janssen Pharmaceutica N.V., priority 1991, dated 1995).

Values after ≈ are worked out from the molar mass of the structure shown. Like-named read-outs stand apart in the source and are kept apart here.

As usually defined, the CC50 is the concentration at which the toxic effect on the cells reaches its halfway point. Read a high CC50 as lower toxicity to the cells.

One data set in a line: in vitro. The class given is cell-based. The following applies: human, mt-4 cells. As for the experimental part: (§1) A rapid, sensitive and automated assay procedure was used for the in-vitro evaluation of anti-HIV agents. An […] T4-cell line, MT-4, which was previously shown (Koyanagi et al., Int. J. Cancer, 36, 445-451, 1985) to be highly susceptible to and permissive for HIV infection, served as the target cell line. Inhibition of the HIV-induced cytopathic effect was used as the end point. The viability of both HIV- and mock-infected cells was assessed spectrophotometrically via the in-situ reduction of 3-(4,5-dimethylthiazol-2-yl)-2,5-diphenyltetrazolium bromide (MTT). The 50% cytotoxic dose (CD50 in μg/ml) was defined as the concentration of compound that reduced the absorbance of the mock-infectedcontrol sample by 50%. The percent protection achieved by the compound in HIV-infected cells was calculated by the following formula: [formula] whereby (ODT)HIV is the optical density measured with a given concentration of the test compound in HIV-infected cells; (ODC)HIV is the optical density measured for the control untreated HIV-infected cells; (ODC)MOCK is the optical density measured for the control untreated mock-infected cells; all optical density values were determined at 540 nm. The dose achieving 50% protection according to the above formula was defined as the 50% effective dose (ED50 in μg/ml). The ratio of CD50 to ED50 was defined as the selectivity index (SI).

A further data set has as its system HIV-1. The data set can be described thus: in-vitro anti-HIV assay: inhibition of the HIV-induced cytopathic effect in HIV-infected MT-4 cells (MTT). The class given is cell-based, Human Immunodeficiency Virus. The following applies: for SI (selectivity index): ratio of CD50 to ED50. As for the experimental part:
as §1
For orientation: Protection from cytopathic effect is a common read-out in antiviral testing.

[1] abbreviates: Human immunodeficiency virus 1, MT4, dose achieving 50% protection in HIV-infected MT-4 cells, MTT, 540 nm, read-out: ED50 (50% effective dose).

In the case of `Cc1cc2c(c(NC(C(N)=O)c3c(Cl)cccc3Cl)c1)C(=O)CC2` (racemic) [Compound 1, (±)-2,6-dichloro-α-[(2,3-dihydro-6-methyl-3-oxo-1H-inden-4-yl)amino]benzene-acetamide], the CC50 in the data set “in vitro” stood at 207 µg/mL (≈ 570 µM). The EC50 with HIV-1 (setting [1]) is 0.0038 µg/mL (≈ 0.0105 µM). The “SI (selectivity index)” value in the data set on HIV-1 stood at 54560.
The matching figures for `NC(=O)C(Nc1cccc2c1C(=O)CO2)c1c(Cl)cccc1Cl` (racemic) [Compound 9, (±)-2,6-dichloro-α-[(2,3-dihydro-3-oxo-4-benzofuranyl)amino]benzeneacetamide]: 169 µg/mL (≈ 480 µM), 0.12 µg/mL (≈ 0.342 µM) and 1405.
`CC(=O)c1ccccc1NC(C)c1c(Cl)cccc1Cl` (racemic) [Compound 10, (±)-1-[2-[[1-(2,6-dichlorophenyl)ethyl]amino]phenyl]ethanone] had a half-maximal cytotoxic concentration (CC50) in the data set “in vitro” of 5 µg/mL (≈ 16.2 µM). Moreover, the EC50 in the data set on HIV-1 (setting [1]) is 0.022 µg/mL (≈ 0.0714 µM). In the data set on HIV-1, the “SI (selectivity index)” value turned out to be 227.
In the case of `O=[N+]([O-])c1ccccc1NC(CO)c1c(Cl)cccc1Cl` (racemic) [Compound 12, (±)-2,6-dichloro-β-(2-nitrophenyl)amino]benzeneethanol], half-maximal cytotoxicity in the data set “in vitro” (CC50) was put at 4.3 µg/mL (≈ 13.1 µM). For the same compound, in the data set with HIV-1 (setting [1]), the EC50 is 0.18 µg/mL (≈ 0.55 µM). In addition, the “SI (selectivity index)” value with HIV-1 was found to be 25.
In “in vitro”, `CC(=O)c1ccccc1NC(c1c(Cl)cccc1Cl)C1CC1` (racemic) [Compound 14, (±)-1-[2-[[cyclopropyl-(2,6-dichlorophenyl)methyl]amino]phenyl]ethanone] showed a CC50 of 4.1 µg/mL (≈ 12.3 µM). The EC50 in the data set on HIV-1 (setting [1]) amounted to 0.15 µg/mL (≈ 0.449 µM). Moreover, the “SI (selectivity index)” value with HIV-1 is 27.
The corresponding values for `CC(=O)c1cc2c(cc1NC(C(N)=O)c1c(Cl)cccc1Cl)CCC2` (stereo not drawn) [Compound 5] are 10 µg/mL (≈ 26.5 µM), 0.2 µg/mL (≈ 0.53 µM) and 50.
As for `NC(=O)C(Nc1cc(Cl)cc2c1OCC2)c1c(Cl)cccc1Cl` (stereo not drawn) [Compound 6], in “in vitro”, the CC50 came out at 0.87 µg/mL (≈ 2.34 µM). The EC50 with HIV-1 (setting [1]) came to 0.079 µg/mL (≈ 0.213 µM). Also, the “SI (selectivity index)” value in the data set on HIV-1 amounted to 11.
Compound `NC(=O)C(Nc1cccc2ccc[n+]([O-])c12)c1c(Cl)cccc1Cl` (stereo not drawn) [Compound 7] registered a CC50 in the data set “in vitro” of 53 µg/mL (≈ 146 µM). For the same compound, the EC50 with HIV-1 (Human immunodeficiency virus 1, MT4, read-out: ED50 (50% effective dose)) turned out to be 0.047 µg/mL (≈ 0.13 µM). The “SI (selectivity index)” value with HIV-1 amounted to 3255.
Turning to `CCC(Nc1ccccc1C(C)=O)c1c(Cl)cccc1Cl` (stereo not drawn) [Compound 11, 1-[2-[[1-(2,6-dichlorophenyl)propyl]amino]phenyl]ethanone], the CC50 in the data set “in vitro” is 6.9 µg/mL (≈ 21.4 µM). The EC50 with HIV-1 (setting [1]) was 0.52 µg/mL (≈ 1.61 µM). Further, the “SI (selectivity index)” value in the data set with HIV-1 is given as 13.
In “in vitro”, `CC(Nc1ccccc1[N+](=O)[O-])c1c(Cl)cccc1Cl` (stereo not drawn) [Compound 13, 2,6-dichloro-α-methyl-N-(2-nitrophenyl)benzenemethanamine] displayed a CC50 of 0.13 µg/mL (≈ 0.418 µM). Further, the EC50 with HIV-1 (setting [1]) amounted to 0.021 µg/mL (≈ 0.0675 µM). Further, the “SI (selectivity index)” value in the data set on HIV-1 is 6.
